Source: patent US20150141367A1, “MODULATION OF GROWTH OF BIFIDOBACTERIA USING A COMBINATION OF OLIGOSACCHARIDES FOUND IN HUMAN MILK” (NESTEC S.A., priority 2011, published 2015)

What was measured:
[1] = system: Bifidobacterium Breve ATCC 15700; experiment: Growth of bifidobacteria in RCM without glucose, optical density at 595 nm over 30 hours; assay type: cell-based
Procedure: (§1) Reinforced Clostridia Medium (RCM) was used for cultivating the bifidobacteria. RCM without glucose was used as a control medium. RCM is a well-known medium for cultivating and enumerating anaerobes, which was first formulated by Hirsch and Grinstead, J. Dairy Res., 21:101 (1954). The test ingredients were 2′-fucosyllactose, 6′-sialyllactose and 3′-sialyllactose dissolved in the control medium at the following concentrations: 1 mg/ml 2′-fucosyllactose; 1 mg/ml 6′-sialyllactose; and, 2 mg/ml 3′-sialyllactose. The bifidobacteria were separately grown overnight anaerobically in RCM, and were then measured and diluted to an optical density of 0.1 as measured by absorbance spectroscopy at 595 nm, and were then further diluted ten-fold to make a working stock. For each test, 50 μl of working stock was added to each well of a 96 well plate containing either 200 μl of control medium (48 wells) or 200 μl test ingredient solution (48 wells). The plate was grown anaerobically for 30 hours and optical density was read at abs 595 nm every 15 minutes. The values for like wells were averaged and plotted over time (FIGS. 1, 3, and 5-7), and the area under the curve (AUC) was calculated over the 30-hour period (FIGS. 2 and 4).

[2] = system: Bifidobacterium Infantis ATCC 15697; experiment: as above; assay type: cell-based; details: for growth in wells containing the test ingredient vs control medium: abs 595 nm; for effect on the growth of Bifidobacterium infantis (summary statement): summary in description
Procedure: as §1

Structure (SMILES) | growth in wells containing the test ingredient vs control medium ([1]; 2 mg/ml 3′-sialyllactose, after grown for 6 hours, abs 595 nm, FIG. 6) | effect on the growth of Bifidobacterium breve (summary statement) ([1]; summary in description) | growth in wells containing the test ingredient vs control medium ([2]; 2 mg/ml 3′-sialyllactose, after grown for 8 hours, FIG. 7) | effect on the growth of Bifidobacterium infantis (summary statement) [2] | growth in wells containing the test ingredient vs control medium ([2]; 1 mg/ml 6′-sialyllactose, after grown for 12 hours, FIG. 5)
CC(=O)N[C@H]1[C@H]([C@H](O)[C@H](O)CO)O[C@@](O[C@H]2[C@@H](O)[C@@H](CO)O[C@@H](O[C@H]3[C@H](O)[C@@H](O)C(O)O[C@@H]3CO)[C@@H]2O)(C(=O)O)C[C@@H]1O (stereo partly drawn) [3′-sialyllactose] | significantly greater | stimulates the growth | significantly greater | stimulates the growth | 
CC(=O)N[C@H]1[C@H]([C@H](O)[C@H](O)CO)O[C@@](OC[C@H]2O[C@@H](O[C@H]3[C@H](O)[C@@H](O)[C@H](O)O[C@@H]3CO)[C@H](O)[C@@H](O)[C@H]2O)(C(=O)O)C[C@@H]1O [6′-sialyllactose] |  |  |  | stimulates the growth | significantly greater
